The record followed here is patent US12390446B2 (RESEARCH TRIANGLE INSTITUTE, priority 2017, dated 2025).

One may read the Ki as the equilibrium dissociation constant of an inhibitor or competing ligand from its target.

Molecules are shown by their SMILES. Several values for one entry are separate records, joined by “and”; a condition that tells them apart may be missing. Identical values can stand only once. Entries after “also recorded” stand apart in the source; their conditions may differ.

One series has as its system Sprague-Dawley rats. In words: Fentanyl-induced hyperalgesia model in rats (von Frey paw withdrawal threshold). Particulars: day 1 after fentanyl, i.p., cumulative doses 3.2-32 mg/kg. The series is classed as in vivo, rat.
Series [1] has as its target NPFF2 receptor (human NPFFR2-CHO cells) (Homo sapiens, UniProt Q9Y5X5). As to the kind of experiment: Lance cAMP functional Ke assay, NPFF2. The series is classed as cell-based. The procedure:
(§1) Kinetic solubility and bidirectional MDCK-MDR1 permeability assays of the compounds were performed by Paraza Pharma Inc. (Montreal, Canada) according to their standard protocols.
(§2) cAMP assay. Stable human NPFFR1-CHO (ES-491-C) and NPFFR2-CHO (ES-490-C) cell lines were purchased from PerkinElmer and used with the Lance@ Ultra kit (TRF0262) to detect cAMP accumulation in low volume 96-well plates. Stimulation buffer containing 1× HBSS, 5 mM HEPES, 0.1% BSA stabilizer, and 0.5 mM IBMX was prepared and titrated to 7.4 at room temperature.
(§3) A single concentration of each test compound was prepared at 4× the desired final concentration in 2% DMSO/stimulation buffer and 5 μL was added to the assay plate.
(§4) Cells were lifted with versene and spun at 270 g for 10 minutes. The cell pellet was resuspended in stimulation buffer and 4,000 cells (10 μL) were added to each well. After incubating for 30 min at RT, Eu-cAMP tracer and uLIGHT-anti-cAMP working solutions were added per the manufacturer's instructions. After incubation at RT for 1 hour, the TR-FRET signal (ex 337 nm) was read on a CLARIOstar multimode plate reader (BMG Biotech, Cary NC).
(§5) Fluorescence values at 665 nm were plotted against the log of compound concentration using a nonlinear regression analysis to generate EC50 values (GraphPad Prism, GraphPad Software, Inc., San Diego CA). Ke values were calculated using the same equation as described in the calcium mobilization methods.

The subject of the next series is MDCK-MDR1 cells. In words: Bidirectional MDCK-MDR1 permeability assay. Format: in vitro ADME. The procedure: as §1
(§6) Bidirectional MDCK-MDR1 permeability assay. MDCK-mdr1 cells at passage 5 were seeded onto permeable polycarbonate supports in 12-well Costar@ Transwell® plates and allowed to grow and differentiate for 3 days. On day 3, culture medium (DMEM supplemented with 10% FBS) was removed from both sides of the transwell inserts and cells were rinsed with warm HBSS. After the rinse step, the chambers were filled with warm transport buffer (HBSS containing 10 mM HEPES, 0.25% BSA, pH 7.4) and the plates were incubated at 37° C. for 30 min prior to TEER (Trans Epithelial Electric Resistance) measurements.
(§7) The buffer in the donor chamber (apical side for A-to-B assay, basolateral side for B-to-A assay) was removed and replaced with the working solution (10 μM test article in transport buffer). The plates were then placed at 37° C. under light agitation. At designated time points (30, 60 and 90 min), an aliquot of transport buffer from the receiver chamber was removed and replenished with fresh transport buffer. Samples were quenched with ice-cold ACN containing internal standard and then centrifuged to pellet protein. Resulting supernatants are further diluted with 50/50 ACN/H2O(H2O only for Atenolol) and submitted for LC-MS/MS analysis. Reported apparent permeability (Papp) values were calculated from single determination. Atenolol and propranolol were tested as low and […] permeability references.
(§8) The apparent permeability (Papp, measured in cm/s) of a compound is determined according to the following formula:
(§9) [formula] • dQ/dt is the net rate of appearance in the receiver compartment • A is the area of the Transwell measured in cm^2 (1.12 cm^2) • Ci is the initial concentration of compound added to the donor chamber • 60 is the conversion factor for minutes to seconds. In Vivo Pharmacology.

For another series, the system named is P-gp (MDR1). In words: Bidirectional MDCK-MDR1 permeability assay. Format: in vitro ADME. Particulars: dog, MDCK-MDR1, pH 7.4; read-out: efflux ratio (PB→A/PA→B). The procedure: as §1, §6, §7, §8, §9
The target of series [2] is T1, NPFF1 receptor (human NPFFR1 in CHO-RD-HGA16 cells) (Homo sapiens, UniProt Q9GZQ6).
T1 construct: expressed in transfected cells
T1 sequence (Q9GZQ6 whole entry): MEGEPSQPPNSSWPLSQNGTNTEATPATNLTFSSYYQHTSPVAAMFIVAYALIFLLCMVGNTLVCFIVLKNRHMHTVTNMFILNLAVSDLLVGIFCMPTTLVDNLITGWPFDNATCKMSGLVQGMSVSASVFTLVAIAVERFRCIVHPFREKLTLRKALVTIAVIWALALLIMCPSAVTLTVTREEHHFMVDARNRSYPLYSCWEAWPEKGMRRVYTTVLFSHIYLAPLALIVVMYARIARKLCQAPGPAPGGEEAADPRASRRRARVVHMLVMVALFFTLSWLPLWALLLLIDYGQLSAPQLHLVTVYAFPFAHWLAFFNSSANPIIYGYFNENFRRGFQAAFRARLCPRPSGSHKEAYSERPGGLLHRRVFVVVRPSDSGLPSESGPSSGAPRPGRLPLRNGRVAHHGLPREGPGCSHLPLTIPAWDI
As to the kind of experiment: Calcium mobilization functional Ke assay, NPFF1. The series is classed as cell-based. Background: Calcium flux is commonly read through the fluorescence of an indicator in the cells.

For series [3], the target named is T2, NPFF2 receptor (CHO-hNPFFR2 membranes) (Homo sapiens, UniProt Q9Y5X5).
T2 construct: purchased PerkinElmer RBHNF2M400UA; host or cells: CHO cell membranes
T2 sequence (Q9Y5X5 whole entry): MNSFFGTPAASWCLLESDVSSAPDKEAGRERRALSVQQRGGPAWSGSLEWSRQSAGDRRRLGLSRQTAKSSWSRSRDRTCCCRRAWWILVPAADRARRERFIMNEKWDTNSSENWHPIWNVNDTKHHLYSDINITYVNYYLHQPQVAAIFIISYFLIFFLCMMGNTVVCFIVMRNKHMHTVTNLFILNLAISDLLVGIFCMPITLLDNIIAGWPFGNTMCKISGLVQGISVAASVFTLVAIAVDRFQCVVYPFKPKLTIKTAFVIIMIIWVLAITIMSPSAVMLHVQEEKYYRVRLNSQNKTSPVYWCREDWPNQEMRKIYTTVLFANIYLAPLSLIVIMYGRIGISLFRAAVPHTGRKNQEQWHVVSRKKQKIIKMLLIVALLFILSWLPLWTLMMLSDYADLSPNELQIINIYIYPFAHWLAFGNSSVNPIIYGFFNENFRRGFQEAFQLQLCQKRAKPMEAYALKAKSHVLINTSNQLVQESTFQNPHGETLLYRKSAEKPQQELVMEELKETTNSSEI
In words: Radioligand binding assay, [125I]NPFF, NPFF2. The procedure: (§10) Radioligand binding assay. Binding assays were performed according to PerkinElmer's protocol in a final volume of 500 μL of assay buffer (50 mM Tris-HCl, 1 mM MgCl2, 60 mM NaCl, 0.5% BSA, pH 7.4). […] After incubating at 27° C. for 120 minutes, the binding assay was terminated by vacuum filtration onto Unifilter GF/C glass-fiber filters (pre-soaked in 0.1% PEI) using a Brandel (Gaithersburg, MD, USA) 96-well harvester, followed by three washes with ice-cold wash buffer (50 mM Tris-HCl, 0.1% BSA, pH 7.4). The filter plate was dried for 1 hr at 55° C. Microscint 20 (50 μL) was added to each well and filter-bound radioactivity was counted on a Packard TopCount NXT microplate scintillation and luminescence counter.
(§11) Data were fit to a one site (fit Ki) competitive binding model, log EC50=log(10^log Ki*(1+RadioligandNM/HotKdNM)), to generate Ki values for the test compounds using GraphPad Prism (GraphPad Software, Inc., San Diego CA).

Another series in a line: Kinetic solubility assay. Format: physicochemical. The procedure:
as §1
Kinetic solubility assay. A 10 μL of test compound stock solution (10 mM DMSO) was combined with 490 μL of PBS (potassium phosphate monobasic 1 mM, sodium phosphate dibasic 3 mM and sodium chloride 155 mM buffer). The solution was agitated on a VX-2500 multi-tube vortexer (VWR) for 2 hours at room temperature. Following agitation, the sample was filtrated on a glass-fiber filter (1 μm) and the eluate was diluted 200-fold with a mixture of acetonitrile: water (1:1). On each experimental occasion, nicardipine and imipramine were assessed as reference compounds for low and high solubility, respectively. All samples were assessed in triplicate and analyzed by LC-MS/MS using electrospray ionization against standards prepared in the same matrix.

In series [4] the target is T3, NPFF2 receptor (human NPFFR2 in CHO-RD-HGA16 cells) (Homo sapiens, UniProt Q9Y5X5).
T3 construct: expressed in transfected cells
T3 sequence (Q9Y5X5 whole entry): as above
As to the kind of experiment: Calcium mobilization functional Ke assay, NPFF2. The series is classed as cell-based.

Series [5] addresses NPFF1 receptor (human NPFFR1-CHO cells) (Homo sapiens, UniProt Q9GZQ6). In words: Lance cAMP functional Ke assay, NPFF1. The series is classed as cell-based. The procedure:
as §1, §2, §3, §4, §5

Series [6] addresses T4, NPFF1 receptor (CHO-hNPFFR1 membranes) (Homo sapiens, UniProt Q9GZQ6).
T4 construct: purchased PerkinElmer RBHNF1M400UA; host or cells: CHO cell membranes
As to the kind of experiment: Radioligand binding assay, [125I]NPFF, NPFF1. The procedure: as §10, §11

NPFF1 receptor (human NPFFR1-CHO cells), sequence (Q9GZQ6 whole entry): as the sequence (Q9GZQ6 whole entry) above
T4 sequence (Q9GZQ6 whole entry): as above
NPFF2 receptor (human NPFFR2-CHO cells), sequence (Q9Y5X5 whole entry): as the sequence (Q9Y5X5 whole entry) above

As to `COc1ccc(CN[C@H]2C[C@@H](C(=O)NCCc3ccc([N+](=O)[O-])cc3)N(Cc3ccccc3Cl)C2)cc1` [Compound 33], in the series on Sprague-Dawley rats, the “effect on PWT” value is given as “dose-dependently increased PWT”. The “Hill slope of NPFF + compound curve, cAMP assay, NPFF2 cells” value in series [1] is on record as 1. Also, in the series with MDCK-MDR1 cells (MDCK-MDR1), the “BBB permeability” value is “moderate”, the “rate B to A” value turned out to be 3.6e-06 cm/s and the “rate apical (A) to basolateral (B)” value is 2.7e-06 cm/s. Besides, in the series with MDCK-MDR1 cells (from efflux ratio), the “Pgp substrate” value is “not Pgp substrates; also recorded: not a Pgp substrate”. The efflux ratio at 90 min, 10 μM in the series with P-gp (MDR1) was 1.3. The “Hill slope of NPFF + compound curve, calcium mobilization, NPFF1 cells” value in series [2] came out at 1.4. Moreover, in series [2] (calcium mobilization assay, read-out: NPFF1 Ke), the Kb was 245 nM and 250 nM. Besides, in series [2] (from calcium mobilization Ke values), the “preference / selectivity for NPFF1 over NPFF2” value was approximately 3 fold. Further, the “type of antagonism in curve-shift assays” value in [2] (standard incubation, competitive profile with longer incubations) is “insurmountable antagonism”. In addition, in [3], the inhibitory constant (Ki) stood at 1670 nM. In addition, the “solubility” value in the series “Kinetic solubility assay” is recorded as “moderate”. In addition, the “Hill slope of NPFF + compound curve, calcium mobilization, NPFF2 cells” value in [4] is on record as 1.4. Besides, in series [5], the “Hill slope of NPFF + compound curve, cAMP assay, NPFF1 cells” value is reported as 1.4. Moreover, in series [6], the inhibition constant Ki amounted to 610 ± 30 nM.
